Assay results published in patent publication US6737383B1, “Herbicidal oxadiazolidines” (priority 1999, dated 2004).

What was measured:
[1] = test system: bedstraw; assay: Test B pre/postemergence bedstraw; format: in vivo, Galium aparine
How it was run: (§1)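 Herbicidal effect was estimated by eye on a ten-point control scale after plants spent twelve to sixteen days in a greenhouse following soil or foliar treatment. Foliar sprays targeted plants at one to four leaves; all doses were formulated in a non-phytotoxic solvent with surfactant.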

[2] = test system: crabgrass; assay: Test B pre/postemergence crabgrass; format: in vivo, Digitaria sanguinalis; conditions: for Crabgrass plant response rating: scale of 0 to 10 where 0 is no effect and 10 is complete control
How it was run: as §1

[3] = test system: blackgrass; assay: Test B pre/postemergence blackgrass; format: in vivo, Alopecurus myosuroides
How it was run: as §1

[4] = test system: morningglory; assay: Test B pre/postemergence morningglory; format: in vivo, Ipomoea hederacea; conditions: for Morningglory plant response rating: scale of 0 to 10 where 0 is no effect and 10 is complete control
How it was run: as §1

[5] = test system: corn; assay: Test B pre/postemergence corn; format: in vivo, Zea mays; conditions: for Corn plant response rating: scale of 0 to 10 where 0 is no effect and 10 is complete control
How it was run: as §1

[6] = test system: surinam grass; assay: Test B pre/postemergence surinam grass; format: in vivo, Brachiaria decumbens
How it was run: as §1

[7] = test system: duck salad; assay: Test B flood test duck salad; format: in vivo, Heteranthera limosa
How it was run: (§2)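 Read-out is a visual response score from 0 (no effect) to 10 (complete control), assigned by comparison with untreated controls. Treatment was applied at the 2-leaf stage, and plants stayed in the greenhouse for twelve to sixteen days before scoring.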

[8] = test system: cocklebur; assay: Test B pre/postemergence cocklebur; format: in vivo, Xanthium strumarium; conditions: for Cocklebur plant response rating: scale of 0 to 10 where 0 is no effect and 10 is complete control
How it was run: as §1

[9] = test system: sugar beet; assay: Test B pre/postemergence sugar beet; format: in vivo, Beta vulgaris; conditions: for Sugarbeets plant response rating: scale of 0 to 10 where 0 is no effect and 10 is complete control
How it was run: as §1

[10] = test system: rice; assay: Test B flood test rice; format: in vivo, Oryza sativa
How it was run: as §2

[11] = test system: soybean; assay: Test B pre/postemergence soybean; format: in vivo, Glycine max; conditions: for Soybean plant response rating: scale of 0 to 10 where 0 is no effect and 10 is complete control
How it was run: as §1

[12] = test system: purple nutsedge; assay: Test B pre/postemergence purple nutsedge; format: in vivo, Cyperus rotundus; conditions: for Nutsedge plant response rating: scale of 0 to 10 where 0 is no effect and 10 is complete control
How it was run: as §1

[13] = test system: pigweed; assay: Test B pre/postemergence pigweed; format: in vivo, Amaranthus retroflexus; conditions: for Redroot pigweed plant response rating: scale of 0 to 10 where 0 is no effect and 10 is complete control
How it was run: as §1

[14] = test system: smallflower flatsedge; assay: Test B flood test smallflower flatsedge; format: in vivo, Cyperus difformis
How it was run: as §2

[15] = test system: wild oat; assay: Test B pre/postemergence wild oat; format: in vivo, Avena fatua; conditions: for Wild oats plant response rating: scale of 0 to 10 where 0 is no effect and 10 is complete control
How it was run: as §1

[16] = test system: giant foxtail; assay: Test B pre/postemergence giant foxtail; format: in vivo, Setaria faberii; conditions: for Giant foxtail plant response rating: scale of 0 to 10 where 0 is no effect and 10 is complete control
How it was run: as §1

[17] = Postemergence, Rate 125 g/ha, scale 0 to 10, 0 is no effect, 10 is complete control
[18] = Preemergence, Rate 62 g/ha, scale 0 to 10 (0 no effect, 10 complete control)
[19] = Preemergence, Rate 250 g/ha, scale of 0 to 10 where 0 is no effect and 10 is complete control
[20] = Rate 62 g/ha, Postemergence, scale of 0 to 10 where 0 is no effect and 10 is complete control
[21] = Rate 250 g/ha, Postemergence, scale of 0 to 10 where 0 is no effect and 10 is complete control
[22] = Rate 500 g/ha, Postemergence, scale 0 to 10, 0 no effect, 10 complete control
[23] = Preemergence, Rate 500 g/ha, scale of 0 to 10 where 0 is no effect and 10 is complete control
[24] = Postemergence (flood test), Rate 125 g/ha, scale 0 to 10, 0 is no effect, 10 is complete control
[25] = Rate 62 g/ha, Postemergence (flood test species), scale of 0 to 10 where 0 is no effect and 10 is complete control
[26] = Rate 500 g/ha, listed under Postemergence (flood test species), scale 0 to 10, 0 no effect, 10 complete control

CC(C)N(C(=O)n1oc(=O)n(C2CCCCCC2)c1=O)c1ccc(F)cc1F [Compound 342]
2: Plant response rating, Blackgrass [3, 21] | B. signalgrass plant response rating [6, 19] | Plant response rating, Redroot pigweed [13, 17] | Redroot pigweed plant response rating ([13]; Rate 62 g/ha, Postemergence)
0: Plant response rating, Bedstraw [1, 18] | Bedstraw plant response rating (0 to 10 scale) ([1]; Preemergence, Rate 125 g/ha) | Bedstraw plant response rating [1, 19] | Plant response rating, Crabgrass [2, 17] | Crabgrass plant response rating ([2]; Rate 62 g/ha, Postemergence) | Plant response rating, Blackgrass [3, 17] | Plant response rating, Blackgrass [3, 18] | Blackgrass plant response rating [3, 20] | Plant response rating, Morningglory [4, 18] | Morningglory plant response rating (0 to 10 scale) ([4]; Preemergence, Rate 125 g/ha) | Morningglory plant response rating ([4]; Preemergence, Rate 250 g/ha) | Morningglory plant response rating ([4]; Preemergence, Rate 500 g/ha) | Plant response rating, Corn [5, 17] | Plant response rating, Corn [5, 18] | Corn plant response rating (0 to 10 scale) ([5]; Preemergence, Rate 125 g/ha) | Corn plant response rating ([5]; Preemergence, Rate 250 g/ha) | Corn plant response rating ([5]; Preemergence, Rate 500 g/ha) | Corn plant response rating ([5]; Rate 62 g/ha, Postemergence) | Plant response rating, Corn [5, 22] | Plant response rating, B. signalgrass [6, 17] | Plant response rating, B. signalgrass [6, 18] | B. signalgrass plant response rating (0 to 10 scale, 0 is no effect, 10 is complete control) ([6]; Preemergence, Rate 125 g/ha) | B. signalgrass plant response rating [6, 20] | Plant response rating, B. signalgrass [6, 21] | Plant response rating, Ducksalad [7, 24] | Ducksalad plant response rating [7, 25] | Plant response rating, Cocklebur [8, 17] | Plant response rating, Cocklebur [8, 18] | Cocklebur plant response rating (0 to 10 scale) ([8]; Preemergence, Rate 125 g/ha) | Cocklebur plant response rating ([8]; Preemergence, Rate 500 g/ha) | Cocklebur plant response rating ([8]; Rate 62 g/ha, Postemergence) | Plant response rating, Cocklebur [8, 22] | Plant response rating, Sugarbeets [9, 17] | Plant response rating, Sugarbeets [9, 18] | Sugarbeets plant response rating (0 to 10 scale) ([9]; Preemergence, Rate 125 g/ha) | Sugarbeets plant response rating ([9]; Preemergence, Rate 250 g/ha) | Sugarbeets plant response rating ([9]; Preemergence, Rate 500 g/ha) | Sugarbeets plant response rating ([9]; Rate 62 g/ha, Postemergence) | Plant response rating, Sugarbeets [9, 22] | Plant response rating, Rice [10, 24] | Rice plant response rating [10, 25] | Plant response rating, Rice [10, 26] | Plant response rating, Soybean [11, 18] | Soybean plant response rating (0 to 10 scale) ([11]; Preemergence, Rate 125 g/ha) | Soybean plant response rating ([11]; Preemergence, Rate 250 g/ha) | Soybean plant response rating ([11]; Preemergence, Rate 500 g/ha) | Plant response rating, Nutsedge [12, 17] | Plant response rating, Nutsedge [12, 18] | Nutsedge plant response rating (0 to 10 scale) ([12]; Preemergence, Rate 125 g/ha) | Nutsedge plant response rating ([12]; Preemergence, Rate 250 g/ha) | Nutsedge plant response rating ([12]; Preemergence, Rate 500 g/ha) | Nutsedge plant response rating ([12]; Rate 62 g/ha, Postemergence) | Plant response rating, Nutsedge [12, 22] | Plant response rating, Redroot pigweed [13, 18] | Redroot pigweed plant response rating (0 to 10 scale) ([13]; Preemergence, Rate 125 g/ha) | Redroot pigweed plant response rating ([13]; Preemergence, Rate 250 g/ha) | Redroot pigweed plant response rating ([13]; Preemergence, Rate 500 g/ha) | S. Flatsedge plant response rating [14, 25] | Plant response rating, Wild oats [15, 17] | Plant response rating, Wild oats [15, 18] | Wild oats plant response rating (0 to 10 scale) ([15]; Preemergence, Rate 125 g/ha) | Wild oats plant response rating ([15]; Preemergence, Rate 250 g/ha) | Wild oats plant response rating ([15]; Rate 62 g/ha, Postemergence) | Plant response rating, Wild oats [15, 22] | Plant response rating, Giant foxtail [16, 17] | Giant foxtail plant response rating ([16]; Rate 62 g/ha, Postemergence)
4: Bedstraw plant response rating [1, 20] | Plant response rating, Crabgrass [2, 18] | Plant response rating, Blackgrass [3, 22] | Plant response rating, Ducksalad [7, 26] | Plant response rating, S. Flatsedge [14, 24] | Wild oats plant response rating ([15]; Preemergence, Rate 500 g/ha)
5: Plant response rating, Bedstraw [1, 17] | Plant response rating, Bedstraw [1, 21] | Plant response rating, Bedstraw [1, 22] | Plant response rating, Soybean [11, 17]
8: Plant response rating, Redroot pigweed [13, 22] | Plant response rating, Giant foxtail [16, 18]
6: Crabgrass plant response rating (0 to 10 scale) ([2]; Preemergence, Rate 125 g/ha) | B. signalgrass plant response rating [6, 23]
1: Plant response rating, B. signalgrass [6, 22]
7: Blackgrass plant response rating [3, 23] | Plant response rating, Morningglory [4, 17] | Morningglory plant response rating ([4]; Rate 62 g/ha, Postemergence) | Plant response rating, Soybean [11, 22] | Plant response rating, Giant foxtail [16, 22]
3: Plant response rating, Crabgrass [2, 22] | Blackgrass plant response rating (0 to 10 scale) ([3]; Preemergence, Rate 125 g/ha) | Blackgrass plant response rating [3, 19] | Soybean plant response rating ([11]; Rate 62 g/ha, Postemergence)
10: Giant foxtail plant response rating ([16]; Preemergence, Rate 250 g/ha) | Giant foxtail plant response rating ([16]; Preemergence, Rate 500 g/ha)
9: Crabgrass plant response rating ([2]; Preemergence, Rate 250 g/ha) | Crabgrass plant response rating ([2]; Preemergence, Rate 500 g/ha) | Plant response rating, Morningglory [4, 22] | Giant foxtail plant response rating (0 to 10 scale) ([16]; Preemergence, Rate 125 g/ha)
